Experiments:
[1] = target: T1, m2 mAChR-G∀i1∃1(2-GDP complex (Sus scrofa, UniProt P06199)); assay: 3H-NMS binding assay by the method of Rinken and Haga
T1 construct: made in house

m2 mAChR = target: T2, m2 mAChR (Sus scrofa, UniProt P06199); assay: as above; settings: m2 mAChR alone, without accessory protein; read-out: apparent Kd
T2 construct: made in house
T2 sequence (P06199 1-466): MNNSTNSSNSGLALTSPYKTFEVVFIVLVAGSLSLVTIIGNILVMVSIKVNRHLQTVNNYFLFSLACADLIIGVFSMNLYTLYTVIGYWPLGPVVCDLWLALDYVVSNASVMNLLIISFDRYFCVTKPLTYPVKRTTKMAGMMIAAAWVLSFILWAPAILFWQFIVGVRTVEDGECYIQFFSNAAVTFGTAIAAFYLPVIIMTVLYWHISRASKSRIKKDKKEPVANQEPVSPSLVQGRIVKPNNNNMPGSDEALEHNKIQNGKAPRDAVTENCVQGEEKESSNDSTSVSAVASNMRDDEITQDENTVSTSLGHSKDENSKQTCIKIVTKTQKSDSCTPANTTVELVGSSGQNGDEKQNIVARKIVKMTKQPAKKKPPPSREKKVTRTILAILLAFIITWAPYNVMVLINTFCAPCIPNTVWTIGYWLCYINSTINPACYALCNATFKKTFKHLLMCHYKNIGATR

T1 sequence (P63096 whole entry partner, one chain of several): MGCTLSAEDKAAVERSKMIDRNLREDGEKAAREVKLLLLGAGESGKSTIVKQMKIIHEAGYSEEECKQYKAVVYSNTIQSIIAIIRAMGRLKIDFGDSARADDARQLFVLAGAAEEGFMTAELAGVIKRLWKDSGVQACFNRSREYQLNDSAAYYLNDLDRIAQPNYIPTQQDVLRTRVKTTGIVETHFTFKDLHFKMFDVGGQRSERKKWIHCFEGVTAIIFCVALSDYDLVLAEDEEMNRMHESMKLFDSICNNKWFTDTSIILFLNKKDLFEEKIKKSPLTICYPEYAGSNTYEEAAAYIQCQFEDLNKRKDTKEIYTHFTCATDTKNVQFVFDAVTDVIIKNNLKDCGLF
T1 sequence (P62873 whole entry partner, one chain of several): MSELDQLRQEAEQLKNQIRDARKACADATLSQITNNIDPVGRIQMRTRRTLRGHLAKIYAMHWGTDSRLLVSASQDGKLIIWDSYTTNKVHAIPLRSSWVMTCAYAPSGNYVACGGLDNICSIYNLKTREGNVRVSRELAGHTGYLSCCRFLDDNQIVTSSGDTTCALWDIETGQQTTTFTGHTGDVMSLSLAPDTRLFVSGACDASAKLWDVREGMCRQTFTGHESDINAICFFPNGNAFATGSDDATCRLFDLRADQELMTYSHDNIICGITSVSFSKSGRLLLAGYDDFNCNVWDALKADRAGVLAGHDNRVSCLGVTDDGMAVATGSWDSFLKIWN
T1 sequence (P59768 2-68 partner limits assumed, one chain of several): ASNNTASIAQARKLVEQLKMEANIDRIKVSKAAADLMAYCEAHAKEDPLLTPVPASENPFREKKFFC

C[N+]1(C)[C@@H]2C[C@@H](OC(=O)[C@H](CO)c3ccccc3)C[C@H]1[C@@H]1O[C@@H]12 [3H-NMS, N-methylscapolamine]
Kd ([1]; m2 mAChR with G protein heterotrimer-GDP as accessory protein): 0.432 µM | enhancement of affinity of m2 mAChR in presence of accessory protein complex ([1]; with vs without G∀i1∃1(2-GDP complex)): 5 fold | Kd (m2 mAChR): 0.00017 µM

— patent publication US20020164617A1, “Affinity selection-based screening of hydrophobic proteins” (NeoGenesis Pharmaceuticals, Inc., priority 2000, published 2002)
